≈ marks a conversion by molar mass, not a printed value. Residues, ends and D or L forms follow the SMILES beside them.
Legend:
[1] = system: HK-2 human kidney proximal tubule cells; assay: in vitro
Protocol: (§1) HEK-293 human embryonic kidney cells (ATCC CRL-1573), HepG2 liver hepatocellular carcinoma cells (ATCC HB-8065), and HK-2 human kidney proximal tubule cells (ATCC CRL-2190) cell lines were purchased from ATCC. Cytotoxicity of arenicin-3 variants was determined using the Alamar Blue (resazurin; Sigma-Aldrich, Cat # R7017), with 1% FBS for HK-2 and 10% FBS for HEK-293, and HepG2[40]. Cells were seeded as 2000 cells per well in black wall clear bottom 384-well plates (Corning®, Costar®, Cat # 3712). The cells were incubated for 24 h at 37 °C, 5% CO2. Then peptides were added into each cell containing well. After 24 h incubation, 5 μM resazurin were added per well and incubated at 37 °C for 2 h. Then the fluorescence intensity (FI) was read using a Polarstar® Omega plate reader with excitation/emission 560/590 and CC50 values were determined using Prism 8 following curve fitting and applying the following equation: Percentageviability = (FITEST-FINegative/FIUNTREATED-FINegative)×100.
(§2) Hemolytic activity was measured against isolated human erythrocytes from anonymously donated fresh human blood. Isolated erythrocytes were adjusted to 1 × 10^9 blood cells mL^−1 in phosphate-buffered saline (PBS, pH 7.4), added to the wells of NUNC polypropylene round-bottom 96-well plates (Sigma-Aldrich, Cat # P6866) then up to 300 μg mL^−1 of compound was added per well and incubated for 3 h at 37 °C. Following incubation, samples were centrifuged at 3000 rpm for 20 min, and the supernatants, 100 μL, were carefully collected for measurement. The degree of hemolysis in the samples was determined by measurement of the absorption of the supernatants at 540 nm using the Polarstar-Omega plate reader. 1% Triton-X100 was used as positive control for inducing 100% hemolysis. HC10 and HC50 values were determined using Prism 8 following curve fitting. The use of human blood (sourced from the Australian Red Cross Blood Service) for hemolysis assays was approved by the University of Queensland Institutional Human Research Ethics Committee, Approval Number 2014000031. All in vitro toxicity assays were performed for two independent biological replicates as an 8-point dose response of 3-fold dilution series in triplicate with the highest test concentration of 300 μg mL^−1.

[2] = in vitro; conditions: human
Protocol: as §1, §2

[3] = system: HepG2 liver hepatocellular carcinoma cells; assay: in vitro
Protocol: as §1, §2

[4] = system: HEK-293 human embryonic kidney cells; assay: in vitro
Protocol: as §1, §2

[5] = system: C. albicans; assay: microbe, parasite or virus in culture; conditions: 24 h
Protocol: (§3) Antimicrobial activity of arenicin-3 and its analogs was tested against a panel of bacterial and yeast strains by in vitro broth microdilution (BMD) assay with minimum inhibitory concentration (MIC) determination. Strains were purchased from American Type Culture Collection (ATCC) or obtained from clinical collaborators (full strain profiles provided in Supplementary Data 3). All peptides were prepared in Ringer’s acetate solution, and subsequently diluted fresh in water for each independent assay.
(§4) Assays were performed in Mueller Hinton broth (MHB; BD, Cat. No. 211443) for bacteria, and yeast extract-peptone dextrose (YPD; Sigma-Aldrich, Y1500) for yeast. The concentrations of the peptides and comparator antibiotics/antifungals in the assay wells ranged from either 128 or 64 μg mL^−1, to 0.06 or 0.03 μg mL^−1 as a 12-point dose response plated as a 2-fold dilution series across the wells of the plate in duplicate for each independent biological replicate, using a final cell density of 5 × 10^5 CFU mL^−1 and 2.5 × 10^3 CFU mL^−1 for bacteria and yeast respectively. Final assay volumes were 100 μL per well with MICs determined visually following 18-20 h incubation at 37 °C for bacteria, 24 h incubation at 35 °C for Candida albicans, and 24 h incubation at 35 °C with resazurin addition (0.006%; Sigma-Aldrich, Cat # R7017) for a further 3 h for Cryptococcus neoformans, without shaking. Additional bacterial and yeast susceptibility assays were performed in Cation-Adjusted Mueller Hinton Broth (CAMHB; BD, Cat No. 212322) and Roswell Park Memorial Institute (RPMI) 1640 culture medium (Life Technologies Australia, Cat No. 21870092), respectively, as recommended by CLSI guidelines (M07 11th ed[36] and M27 4th ed[37]). […] Agarose MICs were determined in MHB with 1% agarose (Bioline molecular grade; Cat no: BIO-41025; high purity, high gel strength). All experiments were performed a minimum of six replicates (n ≥ 6).

[6] = system: E. coli; assay: microbe, parasite or virus in culture
Protocol: as §3, §4

[7] = system: K. pneumoniae; assay: microbe, parasite or virus in culture
Protocol: as §3, §4

[8] = system: S. aureus; assay: microbe, parasite or virus in culture
Protocol: as §3, §4

[9] = system: P. aeruginosa; assay: microbe, parasite or virus in culture
Protocol: as §3, §4

[10] = system: A. baumannii; assay: microbe, parasite or virus in culture
Protocol: as §3, §4

[11] = system: E. coli ATCC 25922; assay: microbe, parasite or virus in culture; assay type: cell-based, Escherichia coli; conditions: ATCC 25922
Protocol: Assays were performed in Mueller Hinton broth (MHB; BD, Cat. No. 211443) for bacteria, and yeast extract-peptone dextrose (YPD; Sigma-Aldrich, Y1500) for yeast. The concentrations of the peptides and comparator antibiotics/antifungals in the assay wells ranged from either 128 or 64 μg mL^−1, to 0.06 or 0.03 μg mL^−1 as a 12-point dose response plated as a 2-fold dilution series across the wells of the plate in duplicate for each independent biological replicate, using a final cell density of 5 × 10^5 CFU mL^−1 and 2.5 × 10^3 CFU mL^−1 for bacteria and yeast respectively. Final assay volumes were 100 μL per well with MICs determined visually following 18-20 h incubation at 37 °C for bacteria, 24 h incubation at 35 °C for Candida albicans, and 24 h incubation at 35 °C with resazurin addition (0.006%; Sigma-Aldrich, Cat # R7017) for a further 3 h for Cryptococcus neoformans, without shaking. Additional bacterial and yeast susceptibility assays were performed in Cation-Adjusted Mueller Hinton Broth (CAMHB; BD, Cat No. 212322) and Roswell Park Memorial Institute (RPMI) 1640 culture medium (Life Technologies Australia, Cat No. 21870092), respectively, as recommended by CLSI guidelines (M07 11th ed[36] and M27 4th ed[37]). […] However, for yeast it was determined that the YPD media was more reliable and robust between repeats and therefore MICs in this media are reported. […] Agarose MICs were determined in MHB with 1% agarose (Bioline molecular grade; Cat no: BIO-41025; high purity, high gel strength). All experiments were performed a minimum of six replicates (n ≥ 6).

[12] = system: human erythrocytes (HRBC); assay type: cell-based; conditions: for Heamolysis HC10: red cells of human, 3 h

Structure (SMILES)	CC50 HK2, Mean [1] [mg/L]	CC50 at 24 h ([2]; HEK-293 cells) [mg/L]	CC50 at 24 h ([2]; HK-2 cells) [mg/L]	CC50 at 24 h ([2]; HepG2 cells) [mg/L]	CC50 HepG2, Mean [3] [mg/L]	CC50 HEK293, Mean [4] [mg/L]	BMD MIC [5] [mg/L]	BMD MIC [6] [mg/L]	BMD MIC [7] [mg/L]	BMD MIC [8] [mg/L]	BMD MIC [9] [mg/L]	BMD MIC [10] [mg/L]	MIC, MHB [11] [mg/L]	Heamolysis HC10, Mean [12] [µg/mL]	CC50 HK2 [1] [mg/L]	CC50 HepG2 [3] [mg/L]	CC50 HEK293 [4] [mg/L]	Heamolysis HC10 [12] [µg/mL]
CC(C)C[C@@H]1NC(=O)CNC(=O)[C@H](CC(N)=O)NC(=O)[C@H](CCCNC(=N)N)NC(=O)[C@H](CO)NC(=O)[C@H](C)NC(=O)[C@@H]2CSSC[C@H](NC(=O)[C@H](C(C)C)NC(=O)[C@H](CCCNC(=N)N)NC1=O)C(=O)N[C@@H](Cc1ccc(O)cc1)C(=O)N[C@@H](CCCNC(=N)N)C(=O)N[C@@H](CCCNC(=N)N)C(=O)N[C@H](C(=O)N[C@@H](CC(N)=O)C(=O)O)CSSC[C@H](NC(=O)[C@H](Cc1ccccc1)NC(=O)CN)C(=O)N[C@@H](Cc1c[nH]c3ccccc13)C(=O)N[C@@H](CCCNC(=N)N)C(=O)N[C@@H](C(C)C)C(=O)N2 [NZ17125] (HELM PEPTIDE1{G.F.C.W.R.V.C.A.S.R.N.G.L.R.V.C.Y.R.R.C.N}$PEPTIDE1,PEPTIDE1,3:R3-20:R3|PEPTIDE1,PEPTIDE1,7:R3-16:R3$$$V2.0)	110 (≈ 43.7 µM)	250 (≈ 99.4 µM)	110 (≈ 43.7 µM)	299 (≈ 119 µM)	299 (≈ 119 µM)	250 (≈ 99.4 µM)	64	0.125	0.25	64	0.25	1	0.125 (≈ 0.0497 µM)	181	–	–	–	–
CC(C)[C@@H]1NC(=O)CNC(=O)[C@H](CC(N)=O)NC(=O)[C@H](CCCNC(=N)N)NC(=O)[C@H](CCCCN)NC(=O)[C@H](C(C)C)NC(=O)[C@@H]2CSSC[C@H](NC(=O)[C@H](CO)NC(=O)[C@H](CCCNC(=N)N)NC1=O)C(=O)N[C@@H](Cc1ccc(O)cc1)C(=O)N[C@@H](CCCNC(=N)N)C(=O)N[C@@H](CCCNC(=N)N)C(=O)N[C@H](C(=O)N[C@@H](CC(N)=O)C(=O)O)CSSC[C@H](NC(=O)[C@H](Cc1ccccc1)NC(=O)CN)C(=O)N[C@@H](Cc1c[nH]c3ccccc13)C(=O)N[C@@H](Cc1ccc(O)cc1)C(=O)N[C@@H](C(C)C)C(=O)N2 [NZ17160] (HELM PEPTIDE1{G.F.C.W.Y.V.C.V.K.R.N.G.V.R.S.C.Y.R.R.C.N}$PEPTIDE1,PEPTIDE1,3:R3-20:R3|PEPTIDE1,PEPTIDE1,7:R3-16:R3$$$V2.0)	>250	> 300	> 250	> 300	>300	>300	64	0.125	0.25	>64	0.5	1	0.125 (≈ 0.0487 µM)	>300	>257	>300	>300	>300
CC(C)[C@@H]1NC(=O)CNC(=O)[C@H](CC(N)=O)NC(=O)[C@H](CCCNC(=N)N)NC(=O)[C@H](CCCNC(=N)N)NC(=O)[C@H](C)NC(=O)[C@@H]2CSSC[C@H](NC(=O)[C@H](C(C)C)NC(=O)[C@H](CCCNC(=N)N)NC1=O)C(=O)N[C@@H](Cc1ccc(O)cc1)C(=O)N[C@@H](CCCNC(=N)N)C(=O)N[C@@H](CCCNC(=N)N)C(=O)N[C@H](C(=O)N[C@@H](CC(N)=O)C(=O)O)CSSC[C@H](NC(=O)[C@H](Cc1ccccc1)NC(=O)CN)C(=O)N[C@@H](Cc1c[nH]c3ccccc13)C(=O)N[C@@H](Cc1c[nH]cn1)C(=O)N[C@@H](C(C)C)C(=O)N2 [NZ17224] (HELM PEPTIDE1{G.F.C.W.H.V.C.A.R.R.N.G.V.R.V.C.Y.R.R.C.N}$PEPTIDE1,PEPTIDE1,3:R3-20:R3|PEPTIDE1,PEPTIDE1,7:R3-16:R3$$$V2.0)	>250	> 300	> 250	> 300	>300	>300	32	0.06	0.25	64	0.25	0.5	0.06 (≈ 0.0235 µM)	>300	>255	>300	>300	>300

Reference: article PMC7311426, “An amphipathic peptide with antibiotic activity against multidrug-resistant Gram-negative bacteria” (Nature Communications, 2020)
